For orientation: Log P means a log measure of how a compound divides between an organic and an aqueous phase.

The conditions of series [1]: cited from earlier work.
The subject of series [2] is FaDu Head and Neck xenografts. Kind of series: Diffusion of Hoechst evaluated by fluorescent imaging of tumor cryo-sections. The class given is in vivo, NMRI nude mice. The method, then: Formulations of lactose isobutyrate:X-SAIB (contrast agent): EtOH and DMSO with composition of 1)75:5:15:5, 2) 77, 5:5:12, 5:5 and 2) 80:5:10:5 were prepared along with formulations of lactose acetate:propionate(1:1):X-SAIB(contrast agent): EtOH and DMSO in 75:5:15:5 ratio. All of the gel formulations were prepared with ˜0.7‰ of Hoechst 33342, as model of a DNA binding drug. 25-30 uL of each gel was injected into FaDu Head and Neck xenografts grown on the flank of NMRI nude mice (groups of 4-8 mice were injected with each formulation). Release and gel-stability was monitored for a maximum of 5-6 days. 2-3 mice were sacrificed at predetermined times (day 1, middle of the experimental period and at the end of the experimental period). The tumors were excised and snap-frozen with liquid N2 to preserve the tumor tissue for histological examination. Stability of the radiopaque gel-depots was evaluated by micro-CT imaging (see FIG. 18). Only the lactose isobutyrate gel was subjected to X-rays, to evaluate the effect of radiation on gel-stability. […] Diffusion of Hoechst was evaluated by fluorescent imaging of the tumor cryo-sections (see FIG. 19).

Series [3] can be described thus: Gel formation after injection of sugar ester formulations into PBS buffer. The class given is physicochemical. The following applies: for injection into PBS and gel-formation: formulated with 35% and 20% propylene carbonate, respectively. The method, then:
The gel-forming properties of the synthesized esters containing only small percentages of organic solvents and/or triglycerides were inspected in the following experiments
˜210 mg of the following sugar ester formulations: α,β Lactose octaacetate: α,β Lactose octaisobutyrate 5:1, α,β Lactose octaacetate: α,β Lactose octaisobutyrate 2:1, α,β Lactose octaacetate: α,β Lactose octaisobutyrate 1:1, α,β Lactose octaacetate: α,β Lactose octapropionate 1:1, α,β Lactose octaacetate: α,β Lactose octapropionate 1:5, α,β Lactose octaacetate: α,β Lactose octapropionate 1:3, α,β Lactose octapropionate: α,β Lactose octaisobutyrate 1:1, α,β Lactose octaacetate: α,β Lactose octaisobutyrate 1:5, α,β Lactose octapropionate, α,β Lactose octaisobutyrate: α,β Lactose octaacetate 0.5:0.5:5, α,β Lactose octaisobutyrate: α,β Lactose octaacetate 3:1, Trehalose octaacetate:Trehalose octapropionate 1:1, Trehalose octapropionate, Trehalose octaisobutyrate, Raffinose undecaacetate:Raffinose undecapropionate 1:1, Raffinose undecaisobutyrate, β-maltose octaisobutyrate and α,β-D-glucosamine pentapropionate were mixed with 20 wt % EtOH by heating to ˜37° C., vortexing and ultrasonication. ˜50-80 uL of the resulting formulations were then injected into 2 mL of PBS buffer using 25 G needles.
˜210 mg of the following sugar ester formulations: α,β Lactose octaacetate, α,β lactose octapropionate, α,β Lactose octaacetate: α,β lactose octapropionate 1:1, α,β lactose octaisobutyrate, α,β maltose octapropionate, β maltose octapropionate, α-D-glucosamine pentapropionate, α, β-D-glucosamine pentapropionate, β maltose octapropionate: α-D-glucosamine pentapropionate 1:1 and α-D-glucosamine pentaisobutyrate were mixed with 20 wt % NMP or DMSO by heating to ˜37° C., vortexing and ultrasonication. ˜50-60 uL of the resulting formulations were injected into PBS. With maltose octapropionate, glucosamine pentapropionate and lactose octaacetate alternative wt % of solvents were also tried (i.e. 25-40 wt % of the before mentioned solvents). […] In case of α,β-maltose propionate and α,β-D-glucosamine pentapropionate, injection into PBS and gel-formation are also successful when formulated with 35% and 20% propylene carbonate, respectively (examples shown in FIG. 1). Pure α-D-Glucosamine esters and hydrophilic maltose ester analogues have a tendency to form hard amorphous solids with some crystallinity after injection into PBS—so although ˜20 wt % solvent is possible to inject with difficulty, gels of this type containing ˜25-35 wt % solvent are easier to handle.
˜210 mg of α,β Lactose octaacetate: α,β Lactose octapropionate 1:1 or α,β Lactose octaisobutyrate were mixed with 2, 5 or 10 wt % glycerol trioctanoate, 5% DMSO and EtOH was added to give 20 wt % solvent in total for all formulations. In case of lactose octaisobutyrate, formulations containing 15 wt % glycerol trioctanoate and 5% DMSO, 30 wt % glycerol trioctanoate and 5% NMP/DMSO or 40 wt % glycerol trioctanoate alone were also made. The solutions were mixed by heating to ˜37° C., vortexing and ultrasonication. ˜40-60 uL of the resulting formulations were injected into PBS.

Where [4] appears, read: 20 wt % EtOH, ~50-80 uL injected into 2 mL PBS buffer, 25 G needles.
Setting [5] is: 20 wt % NMP or DMSO (25-40 wt % also tried for some), ~50-60 uL injected into PBS.

Consider `O=C([O-])c1ccccc1-c1c2cc(Br)c(=O)c(Br)c-2oc2c(Br)c([O-])c(Br)cc12.[Na+].[Na+]` [Eosin Y], for which, in series [1], the “Log P” value is on record as ~6.4.

As for `CCOc1ccc(-c2nc3ccc(-c4nc5ccc(N6CCN(C)CC6)cc5[nH]4)cc3[nH]2)cc1` [Hoechst 33342], in series [2] (from gel depots, ~0.7‰ Hoechst 33342, tumor cryo-sections), the “release of Hoechst into the tumors” value is given as “confirmed release of Hoechst into the tumors”. In addition, in series [2] (over a period of 6 days), the “distribution of the fluorophore in the tumor” value is given as “distribution of the fluorophore across most of the tumor area”.

For `CC(C)C(=O)OCC1O[C@H](OCC2O[C@@H](O[C@]3(COC(=O)C(C)C)O[C@H](COC(=O)C(C)C)[C@@H](OC(=O)C(C)C)[C@H]3OC(=O)C(C)C)C(OC(=O)C(C)C)[C@@H](OC(=O)C(C)C)[C@@H]2OC(=O)C(C)C)C(OC(=O)C(C)C)[C@@H](OC(=O)C(C)C)[C@H]1OC(=O)C(C)C` (stereo partly drawn) [Raffinose undecaisobutyrate, Raffinose Undecaisobutyrate], in series [3] (setting [4]), the “gel formation upon injection” value was “formed gels upon injection”.

In the case of `CCC(=O)OCC1O[C@@H](O[C@H]2OC(COC(=O)CC)[C@@H](OC(=O)CC)[C@H](OC(=O)CC)C2OC(=O)CC)C(OC(=O)CC)C(OC(=O)CC)[C@H]1OC(=O)CC` (stereo partly drawn) [Trehalose octapropionate, Trehalose Octapropionate], in series [3] (setting [4]), the “gel formation upon injection” value is “formed gels upon injection”.

With `O=C1OC2(c3ccc(O)cc3Oc3cc(O)ccc32)c2ccccc21` [fluorescein free acid], the “Log P” value in series [1] is given as ~1.8.

Regarding `NNC(=O)c1ccncc1` [isoniazide], the lipophilicity (Log P) in series [1] is ~−0.8.

In the case of `Nc1n[n+]([O-])c2ccccc2[n+]1[O-]` [tirapazamine], the “Log P” value in series [1] is ~−0.06.

Turning to `CC(=O)OC[C@H]1O[C@@H](O[C@H]2[C@H](OC(C)=O)[C@@H](OC(C)=O)C(OC(C)=O)O[C@@H]2COC(C)=O)[C@H](OC(C)=O)[C@@H](OC(C)=O)[C@H]1OC(C)=O` (stereo partly drawn) [α,β Lactose octaacetate, α,β-Lactose Octaacetate], the injectability result in series [3] (20 wt % DMSO or 20 wt % propylene carbonate) is given as “this occurs with difficulty due to high viscosity”. For the same compound, in series [3] (setting [5]), the “gel formation upon injection” value was “formation of an amorphous solid (gel) was seen”.

For the compound `CC(C)C(=O)OC[C@H]1O[C@@H](O[C@H]2[C@H](OC(=O)C(C)C)[C@@H](OC(=O)C(C)C)C(OC(=O)C(C)C)O[C@@H]2COC(=O)C(C)C)[C@H](OC(=O)C(C)C)[C@@H](OC(=O)C(C)C)[C@H]1OC(=O)C(C)C` (stereo partly drawn) [α,β lactose octaisobutyrate, α,β-Lactose Octaisobutyrate], the “gel formation upon injection” value in series [3] (2-40 wt % glycerol trioctanoate, with DMSO/NMP/EtOH, ~40-60 uL injected into PBS) is reported as “formation of an amorphous solid (gel) was seen”; in series [3] (setting [5]) it was “formation of an amorphous solid (gel) was seen”. Besides, the “appearance of the injected solid” value in series [3] (pure triglyceride used as solvent (40 wt % glycerol trioctanoate alone), up to 24 h after injection) is “very soft, transparant and could easily be manipulated in shape”.

`CCC(=O)OC[C@H]1O[C@@H](O[C@H]2[C@H](OC(=O)CC)[C@@H](OC(=O)CC)C(OC(=O)CC)O[C@@H]2COC(=O)CC)[C@H](OC(=O)CC)[C@@H](OC(=O)CC)[C@H]1OC(=O)CC` (stereo partly drawn) [α,β lactose octapropionate, α,β-Lactose Octapropionate]: the “gel formation upon injection” value in series [3] (setting [5]) was “formation of an amorphous solid (gel) was seen”.

Regarding `CCC(=O)OCC1OC(OC(=O)CC)C(OC(=O)CC)[C@@H](OC(=O)CC)[C@@H]1O[C@H]1OC(COC(=O)CC)[C@@H](OC(=O)CC)[C@H](OC(=O)CC)C1OC(=O)CC` (stereo partly drawn) [α,β maltose octapropionate, α,β-Maltose Octapropionate], the “gel formation upon injection” value in series [3] (setting [5]) is on record as “formation of an amorphous solid (gel) was seen”. In series [3], the “injection into PBS and gel-formation” value is recorded as “successful”.

Turning to `CCC(=O)NC1C(OC(=O)CC)OC(COC(=O)CC)[C@@H](OC(=O)CC)[C@@H]1OC(=O)CC` (stereo partly drawn) [α,β-D-glucosamine pentapropionate, α,β-D Glucosamine Pentapropionate], the “gel formation upon injection” value in series [3] (setting [4]) is given as “formed gels upon injection”; in series [3] (setting [5]) it was “formation of an amorphous solid (gel) was seen”. The “injection into PBS and gel-formation” value in series [3] was “successful”.

Take `CC(C)C(=O)NC1[C@@H](OC(=O)C(C)C)OC(COC(=O)C(C)C)[C@@H](OC(=O)C(C)C)[C@@H]1OC(=O)C(C)C` (stereo partly drawn) [α-D-glucosamine pentaisobutyrate, α-D Glucosamine Pentaisobutyrate]: in series [3] (setting [5]), the “gel formation upon injection” value is “formation of an amorphous solid (gel) was seen”.

As to `CCC(=O)NC1[C@@H](OC(=O)CC)OC(COC(=O)CC)[C@@H](OC(=O)CC)[C@@H]1OC(=O)CC` (stereo partly drawn) [α-D-glucosamine pentapropionate, α-D Glucosamine Pentapropionate], the “gel formation upon injection” value in series [3] (setting [5]) is on record as “formation of an amorphous solid (gel) was seen”.

As for `CCC(=O)OCC1O[C@H](O[C@@H]2C(COC(=O)CC)O[C@@H](OC(=O)CC)C(OC(=O)CC)[C@H]2OC(=O)CC)C(OC(=O)CC)[C@@H](OC(=O)CC)[C@@H]1OC(=O)CC` (stereo partly drawn) [β maltose octapropionate, β-Maltose Octapropionate], the “gel formation upon injection” value in series [3] (setting [5]) is “formation of an amorphous solid (gel) was seen”.

As for `CC(C)C(=O)OCC1O[C@H](O[C@@H]2C(COC(=O)C(C)C)O[C@@H](OC(=O)C(C)C)C(OC(=O)C(C)C)[C@H]2OC(=O)C(C)C)C(OC(=O)C(C)C)[C@@H](OC(=O)C(C)C)[C@@H]1OC(=O)C(C)C` (stereo partly drawn) [β-maltose octaisobutyrate, β-Maltose Octaisobutyrate], the “gel formation upon injection” value in series [3] (setting [4]) was “formed gels upon injection”.

Regarding Trehalose Octaisobutyrate, in series [3] (setting [4]), the “gel formation upon injection” value is listed as “formed gels upon injection”.

(Values after patent US11065201B2, “Gel formulations for local drug release” (TECHNICAL UNIVERSITY OF DENMARK, priority 2014, dated 2021).)
